Measured values as given in patent publication US20110166223A1, “METHODS OF INHIBITING FGFR3 SIGNALING” (CEDARS-SINAI MEDICAL CENTER, priority 2008, published 2011).
“Also recorded” adds a separate entry of the source.

Target: T1, full-length FLAG-tagged K650E-FGFR3 (Homo sapiens, UniProt P22607, K650E)
T1 construct: using full-length FLAG-tagged K650E-FGFR3 that was expressed in CHO cells; made in house; host or cells: CHO cells (transient transfection, anti-FLAG immunoprecipitation)
Experiment: Cell-free K650E-FGFR3 kinase assay with STAT1 as substrate
Format: biochemical
Details: immunopurified from CHO cells; FIG. 6
Description: FIG. 6, in accordance with an embodiment herein, depicts 4,4′,4″,4′″-[carbonyl-bis[imino-5,1,3-benzenetriyl bis-{carbonylimino}]]tetrakis-{benzene-1,3-disulfonic acid} inhibits K650E-FGFR3 in a kinase assay. Cell-free K650E-FGFR3 kinase assays were carried-out using full-length FLAG-tagged K650E-FGFR3 that was expressed in CHO cells, purified by immunoprecipitation with FLAG antibody and subjected to a kinase reaction with recombinant STAT1 as a substrate and 4,4′,4″,4′″-[carbonyl-bis[imino-5,1,3-benzenetriyl bis-{carbonylimino}]]tetrakis-{benzene-1,3-disulfonic acid} added to the kinase reaction. Cells transfected with plasmid encoding green fluorescent protein (GFP) serve as a negative control for the immunoprecipitation. […]
OPM2 and KMS11 cells were lysed in ice-cold immunoprecipitation buffer (50 mM Tris-HCl pH 7.4, 150 mM NaCl, 0.5% NP-40, 1 mM EDTA, 25 mM NaF) supplemented with proteinase inhibitors and 10 mM sodium orthovanadate. […] Western blotting signal was quantified by determining the integrated optical density (I.O.D.) of a given band using Scion Image software (Scion Corporation, Frederick, Mass.). […] FGFR3-mediated phosphorylation of STAT1 was detected by western blotting with P-STAT1^Y701 antibody (Cell Signaling). […]

T1 sequence (P22607 23-806 K650E): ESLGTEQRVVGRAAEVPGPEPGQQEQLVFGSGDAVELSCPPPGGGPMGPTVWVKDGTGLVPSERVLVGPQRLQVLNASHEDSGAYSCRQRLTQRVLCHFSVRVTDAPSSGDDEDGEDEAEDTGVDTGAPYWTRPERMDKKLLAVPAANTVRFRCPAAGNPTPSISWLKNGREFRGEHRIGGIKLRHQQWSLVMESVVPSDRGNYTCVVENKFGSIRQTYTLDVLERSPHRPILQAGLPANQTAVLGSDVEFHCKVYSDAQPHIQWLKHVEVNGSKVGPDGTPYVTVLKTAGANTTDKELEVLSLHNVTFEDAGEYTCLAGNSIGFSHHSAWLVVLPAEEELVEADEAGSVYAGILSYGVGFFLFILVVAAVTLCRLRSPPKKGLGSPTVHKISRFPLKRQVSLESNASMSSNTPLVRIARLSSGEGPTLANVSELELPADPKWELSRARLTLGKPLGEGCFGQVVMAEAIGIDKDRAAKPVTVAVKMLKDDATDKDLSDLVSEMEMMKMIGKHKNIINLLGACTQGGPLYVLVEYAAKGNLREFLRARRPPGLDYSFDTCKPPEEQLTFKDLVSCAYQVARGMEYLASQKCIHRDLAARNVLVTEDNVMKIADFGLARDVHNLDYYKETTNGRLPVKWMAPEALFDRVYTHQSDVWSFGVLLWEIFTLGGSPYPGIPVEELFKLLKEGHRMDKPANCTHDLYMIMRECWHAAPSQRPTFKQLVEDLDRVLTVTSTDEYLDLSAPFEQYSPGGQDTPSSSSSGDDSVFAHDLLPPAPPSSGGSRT

O=C(Nc1cc(C(=O)Nc2ccc(S(=O)(=O)O)cc2S(=O)(=O)O)cc(C(=O)Nc2ccc(S(=O)(=O)O)cc2S(=O)(=O)O)c1)Nc1cc(C(=O)Nc2ccc(S(=O)(=O)O)cc2S(=O)(=O)O)cc(C(=O)Nc2ccc(S(=O)(=O)O)cc2S(=O)(=O)O)c1 [NF449, 4,4′,4″,4′″-[carbonyl-bis[imino-5,1,3-benzenetriylbis-{carbonylimino}]]tetrakis-{benzene-1,3-disulfonic acid}]
effect on K650E-FGFR3 kinase activity (Y701 phosphorylation of STAT1): inhibitory effect; also recorded: inhibited K650E-FGFR3 kinase activity
